One data set deals with A549 cells. As to the kind of experiment: Cell proliferation assay (CellTiter-Glo), K-Ras G12S cells. In kind it is cell-based. The following applies: for Compound IC50 Ratio IC50 (Cpd A):IC50 (Cpd B): A549 cells, Comparative Compound A lacking the warhead vs Compound B; for IC50: Homo sapiens, A549, ≤500 nM, read-out: Inhibition of A549 Cells (IC50). As for the experimental part: A549 (ATCC CRL-185) and LS123 (ATCC CRL-255) cell lines comprise a G12S mutation and can be used to assess Ras cellular signaling in vitro, e.g., in response to the compounds herein. A549 culture medium is prepared with RPMI-1640 and 10% heat-inactivated FBS. LS123 culture medium is prepared with RPMI-1640 and 10% heat-inactivated FBS. A CellTiter-Glo (CTG) luminescent based assay (Promega) is used to assess growth of the cells, as a measurement of the ability of the compounds herein to inhibit Ras signaling in the cells. The cells (e.g., 800 per well) are seeded in their respective culture medium in standard tissue culture-treated 384-well format plates (Falcon #08-772-116) or ultra-low attachment surface 384-well format plates (S-Bio #MS-9384WZ). The day after plating, cells are treated with a dilution series (e.g., a 10 point 3-fold dilution series) of the compounds herein (e.g., approximately 40 μl final volume per well). Cell viability can be monitored (e.g., approximately 6 days later) according to the manufacturer's recommended instructions, where the CellTiter-Glo reagent is added (e.g., approximately 10 μl), vigorously mixed, covered, and placed on a plate shaker (e.g., approximately for 20 min) to ensure sufficient cell lysis prior to assessment of luminescent signal. The IC50 values are determined using the four parameter fit. The resulting IC50 value is a measurement of the ability of the compounds herein to reduce cell growth of Ras-driven cells (e.g., tumor cell lines) in vitro and/or in vivo.
Background: Cellular ATP, detected with luciferase, serves as a proxy for viable cell number.

Data set [1] is described as follows: Metabolic (microsomal) stability assay. The following applies: pooled liver microsomes, pH 7.4. On the technique in general: Microsomes from liver hold many membrane-bound enzymes, among them those of drug oxidation.
The target in data set [2] is T1, KRAS G12D 1-169 (His-tagged, GDP-loaded) (Homo sapiens, UniProt P01116, G12D).
T1 construct: His -tagged GDP-loaded G12D 1-169; made in house; host or cells: E. coli, e.g. BL21 (DE3)
Description: Covalent modification of KRAS protein by intact-protein LC-MS. The following applies: comparable or same conditions as K-Ras G12S. In kind it is binding. An outline of the steps:
(§1)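 Percent modification is derived from deconvoluted intact-protein LC-ESI-MS peak intensities of adducted versus unmodified KRAS. GDP-loaded His-tagged KRAS 1-169 (~2 μM, HEPES buffer at physiological conditions) was exposed to compound for 24 hrs at room temperature, then quenched with formic acid before C4 reversed-phase separation.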

The next data set has as its system GP2D cells. As to the kind of experiment: Cell proliferation assay (CellTiter-Glo), K-Ras G12D cells. In kind it is cell-based. The following applies: bins given, read-out: Inhibition of GP2D Cells (IC50). Here is the method:
ASPC-1 (ATCC CRL-1682), Panc-10.05 (ATCC CRL-2547), A427, and GP2D (Sigma 95090714) cell lines comprise a G12D mutation and can be used to assess Ras cellular signaling in vitro, e.g., in response to the compounds herein. […] ASPC-1 culture medium is prepared with RPMI-1640 and 10% heat-inactivated FBS. Panc-10.05 culture medium is prepared with RPMI-1640, 10 Units/ml human recombinant insulin, and 10% FBS. A427 cell culture is prepared with RPMI-1640 and 10% heat-inactivated FBS. GP2D culture medium is prepared with DMEM with 2 mM glutamine and 10% heat-inactivated FBS. A CellTiter-Glo (CTG) luminescent based assay (Promega) is used to assess growth of the cells, as a measurement of the ability of the compounds herein to inhibit Ras signaling in the cells. The cells (e.g., 800 per well) are seeded in their respective culture medium in standard tissue culture-treated 384-well format plates (Falcon #08-772-116) or ultra-low attachment surface 384-well format plates (S-Bio #MS-9384UZ). The day after plating, cells are treated with a dilution series (e.g., a 9 point 3-fold dilution series) of the compounds herein (e.g., approximately 40 μl final volume per well). Cell viability can be monitored (e.g., approximately 5 days later) according to the manufacturer's recommended instructions, where the CellTiter-Glo reagent is added (e.g., approximately 10 μl), vigorously mixed, covered, and placed on a plate shaker (e.g., approximately for 20 min) to ensure sufficient cell lysis prior to assessment of luminescent signal. The IC50 values are determined using the four parameter fit. The resulting IC50 value is a measurement of the ability of the compounds herein to reduce cell growth of Ras-driven cells (e.g., tumor cell lines) in vitro and/or in vivo.

The target of the next data set is T2, K-Ras G12S (Homo sapiens, UniProt P01116, G12S).
T2 construct: made in house; host or cells: E. coli, e.g. BL21 (DE3)
Description: HTRF assay, K-Ras G12S / SOS1 interaction. In kind it is biochemical. The settings on record: IC50 against K-Ras G12D divided by IC50 against K-Ras G12S. An excerpt:
This assay can be also used to assess a selective inhibition or reduction of signaling output of a mutant Ras protein relative to a wildtype, or relative to a different mutant Ras protein. For example, the equilibrium interaction of wildtype Kras or K-Ras mutant (e.g., wildtype or a mutant thereof including those mentioned in Example 6) with SOS1 (e.g., hSOS1) can be assessed as a proxy or an indication for a subject compound's ability to bind and inhibit Ras protein. HTRF assay detects from (i) a fluorescence resonance energy transfer (FRET) donor (e.g., antiGST-Europium) that is bound to GST-tagged K-Ras mutant to (ii) a FRET acceptor (e.g., anti-6His -XL665) bound to a His -tagged hSOS1.
The assay buffer can contain ˜5 mM HEPES pH 7.4, ˜150 mM NaCl, ˜1 mM DTT, 0.05% BSA and 0.0025% (v/v) Igepal. A Ras working solution is prepared in an assay buffer containing typically a suitable amount of the protein construct (e.g., GST-tagged K-Ras mutant) and the FRET donor (e.g., antiGST-Eu(K) from Cisbio, France). A SOS1 working solution is prepared in an assay buffer containing suitable amount of the protein construct (e.g., His -hSOS1) and the FRET acceptor (e.g., anti-6His -XL665 from Cisbio, France). A suitable amount of the protein construct will depend on the range of activity or range of IC50 values being detected or under investigation. For detecting IC50 within a range of 500 nM, the protein constructs of the same range of molarity can be utilized.
A fixed volume of DMSO with or without test compound is transferred into a 384-well plate. Ras working solution is added to all wells of the test plate. SOS1 working solution is added to all wells except for those that are subsequently filled the inhibitor control solution. Upon incubation for about 10 minutes or longer, the fluorescence is measured with a M1000Pro plate reader (Tecan) using HTRF detection (excitation 337 nm, emission 1: 620 nm, emission 2: 665 nm). Compounds are tested in duplicates at different concentrations (for example, 10 μM, 2.5 μM, 0.63 μM, 0.16 μM, 0.04 μM, 0.01 μM test compound). The ratiometric data (i.e., emission 2 divided by emission 1) is used to calculate IC50 values against Ras using GraphPad Prism (GraphPad software). Following this general procedure, samples were tested with or without a subject compound disclosed herein including compounds exemplified in Table 3 to assess their abilities to inhibit K-Ras G12S relative to another mutant (e.g., K-Ras G12D). Signaling output measured in terms of IC50 values can be obtained, a ratio of IC50 against one mutant relative to another mutant can be calculated. For instance, a selective reduction of K-Ras G12S signaling output can be evidenced by a ratio greater than one. In particular, a selective reduction of K-Ras G12S signaling relative to K-Ras G12D signaling is evidenced as the ratio of IC50 (against K-Ras G12D) to IC50 (against K-Ras G12S) is greater than 1.
On the technique in general: In TR-FRET formats the signal depends on donor and acceptor labels being close together.

In data set [3] the target is T3, KRAS G12S 1-169 (His-tagged, GDP-loaded) (Homo sapiens, UniProt P01116, G12S).
T3 construct: His -tagged GDP-loaded G12S 1-169; made in house; host or cells: E. coli, e.g. BL21 (DE3)
Description: Covalent modification of KRAS protein by intact-protein LC-MS. It is filed as binding. The following applies: KRAS G12S, 24 hr. Put shortly: as §1

A short description of a further data set: in vitro. The settings on record: microsomes, pH 7.4.

Each structure is given as a SMILES string.

With `N#CCc1ncn(C(=O)N2CC3(C2)CN(c2nc(OC[C@@]45CCCN4C[C@H](F)C5)nc4c(F)c(-c5ccc(F)c6sc(N)c(C#N)c56)c(Cl)cc24)CCO3)n1` [Compound A110, 2-amino-4-(6-chloro-4-(2-(3-(cyanomethyl)-1H-1,2,4-triazole-1-carbonyl)-5-oxa-2,8-diazaspiro[3.5]nonan-8-yl)-8-fluoro-2-(((2R,7aS)-2-fluoro-tetrahydro-1H-pyrrolizin-7a(5H)-yl)methoxy)quinazolin-7-yl)-7-fluorobenzo[b]thio-phene-3-carbonitrile], in the data set with A549 cells, the “Compound IC50 Ratio IC50 (Cpd A):IC50 (Cpd B)” value is >4 (A549 cells). In data set [1], this compound returned a half-life at 0.5 μM above 10 min. Also, the “covalent labeling of K-Ras G12D” value in data set [2] is given as “essentially no detectable labeling”.

On to `CN1CCC[C@H]1COc1nc(N2CCOC3(CN(C(=O)n4cncn4)C3)C2)c2cc(Cl)c(-c3ccc(F)c4sc(N)c(C#N)c34)c(F)c2n1` [Compound A137, 4-(4-(2-(1H-1,2,4-triazole-1-carbonyl)-5-oxa-2,8-diaza-spiro[3.5]nonan-8-yl)-6-chloro-8-fluoro-2-(((S)-1-methylpyr-rolidin-2-yl)methoxy)quinaz-olin-7-yl)-2-amino-7-fluoro-benzo[b]thiophene-3-carbonitrile], for which the “Compound IC50 Ratio IC50 (Cpd A):IC50 (Cpd B)” value in the data set with A549 cells is on record as >4 (A549 cells). Also, the “covalent labeling of K-Ras G12D” value in data set [2] was “essentially no detectable labeling”.

With `N#Cc1cn(C(=O)N2CC3(CCN(c4nc(OC[C@@]56CCCN5C[C@H](F)C6)nc5c(F)c(-c6ccc(F)c7sc(N)nc67)c(Cl)cc45)CC3)C2)cn1` [Compound A179, 1-(7-(7-(2-amino-7-fluorobenzo-[d]thiazol-4-yl)-6-chloro-8-fluoro-2-(((2R,7aS)-2-fluoro-tetrahydro-1H-pyrrolizin-7a(5H)-yl)methoxy)quinazolin-4-yl)-2,7-diazaspiro[3.5]nonane-2-carbonyl)-1H-imidazole-4-carbonitrile], in the data set on GP2D cells, the half-maximal inhibitory concentration (IC50) lay in the range of 1000 to 10000 nM. Moreover, on K-Ras G12S, the “Ratio of IC50 KRAS G12D vs. IC50 KRAS G12S” value was “A (A: indicates that the ratio of IC50 against KrasG12D vs. IC50 against KrasG12S is 1-fold or greater)”.

Consider `Cc1cn(C(=O)N2C3CCC2CN(c2nc(OC[C@@]45CCCN4C[C@H](F)C5)nc4c(F)c(-c5ccc(F)c6sc(N)c(C#N)c56)c(Cl)cc24)C3)nn1` [Compound A189, 2-amino-4-(6-chloro-8-fluoro-2-(((2R,7aS)-2-fluorotetrahydro-1H-pyrrolizin-7a(5H)-yl)meth-oxy)-4-(8-(4-methyl-1H-1,2,3-triazole-1-carbonyl)-3,8-diaza-bicyclo[3.2.1]octan-3-yl)quin-azolin-7-yl)-7-fluorobenzo[b]-thiophene-3-carbonitrile], for which the IC50 is at most 500 nM in the data set with A549 cells and at most 1000 nM in the data set on GP2D cells.

On to `N#Cc1c(N)sc2c(F)ccc(-c3c(Cl)cc4c(N5CC(F)(F)C6(CN(C(=O)n7cncn7)C6)C5)nc(OC[C@@]56CCCN5C[C@H](F)C6)nc4c3F)c12` [Compound A199, 2-amino-4-(6-chloro-4-(8,8-difluoro-2-(1H-1,2,4-triazole-1-carbonyl)-2,6-diazaspiro[3.4]-octan-6-yl)-8-fluoro-2-(((2R,7aS)-2-fluorotetrahydro-1H-pyrrolizin-7a(5H)-yl)meth-oxy)quinazolin-7-yl)-7-fluoro-benzo[b]thiophene-3-carbonitrile], for which the IC50 with A549 cells is at most 500 nM; with GP2D cells, 1000 to 10000 nM. Further, in data set [2], the “covalent labeling of K-Ras G12D” value is on record as “essentially no detectable labeling”. Moreover, the “% G12S Modification at 24 hr.” value in data set [3] is on record as “+++ (+++ indicates greater than 20% labelling)”.

Consider `C#Cc1c(F)ccc2cc(O)cc(-c3ncc4c(N5CC6CCC(C5)N6C(=O)n5ccc(C#N)n5)nc(OC[C@@]56CCCN5C[C@H](F)C6)nc4c3F)c12` [Compound A216, 1-(3-(7-(8-ethynyl-7-fluoro-3-hydroxynaphthalen-1-yl)-8-fluoro-2-(((2R,7aS)-2-fluoro-tetrahydro-1H-pyrrolizin-7a(5H)-yl)methoxy)pyrido[4,3-d]pyrimidin-4-yl)-3,8-diaza-bicyclo[3.2.1]octane-8-carbon-yl)-1H-pyrazole-3-carbonitrile], for which the IC50 with A549 cells is at most 500 nM; in the data set on GP2D cells it was at most 1000 nM. The half-life at 0.5 μM in “in vitro” was above 10 min.

By half-life is commonly meant the time in which the quantity being followed falls by half. High values mean slow loss, low ones fast loss. In general, IC50 refers to the concentration at which inhibition is half-maximal.

These data come from patent US20240368191A1, “HETEROCYCLIC COMPOUNDS AND USES THEREOF” (Kumquat Biosciences Inc., priority 2021, published 2024).
